Source: ChEMBL document CHEMBL1122565, “Quantitative structure-activity relationships of 6-anilinouracils as inhibitors of Bacillus subtilis DNA polymerase III” (J Med Chem, 1984)

Experiments:
[1] = molecular target: DNA polymerase III (Bacillus subtilis); assay: Inhibition constant against Bacillus subtilis azp-12 DNA polymerase III (mutant enzyme).
[2] = molecular target: DNA polymerase III PolC-type (Bacillus subtilis (strain 168), UniProt P13267); assay: Inhibition constant against Bacillus subtilis DNA polymerase III (wild type).; details: read-out: Log 1/Ki (converted)
Sequence of DNA polymerase III PolC-type (P13267 whole entry): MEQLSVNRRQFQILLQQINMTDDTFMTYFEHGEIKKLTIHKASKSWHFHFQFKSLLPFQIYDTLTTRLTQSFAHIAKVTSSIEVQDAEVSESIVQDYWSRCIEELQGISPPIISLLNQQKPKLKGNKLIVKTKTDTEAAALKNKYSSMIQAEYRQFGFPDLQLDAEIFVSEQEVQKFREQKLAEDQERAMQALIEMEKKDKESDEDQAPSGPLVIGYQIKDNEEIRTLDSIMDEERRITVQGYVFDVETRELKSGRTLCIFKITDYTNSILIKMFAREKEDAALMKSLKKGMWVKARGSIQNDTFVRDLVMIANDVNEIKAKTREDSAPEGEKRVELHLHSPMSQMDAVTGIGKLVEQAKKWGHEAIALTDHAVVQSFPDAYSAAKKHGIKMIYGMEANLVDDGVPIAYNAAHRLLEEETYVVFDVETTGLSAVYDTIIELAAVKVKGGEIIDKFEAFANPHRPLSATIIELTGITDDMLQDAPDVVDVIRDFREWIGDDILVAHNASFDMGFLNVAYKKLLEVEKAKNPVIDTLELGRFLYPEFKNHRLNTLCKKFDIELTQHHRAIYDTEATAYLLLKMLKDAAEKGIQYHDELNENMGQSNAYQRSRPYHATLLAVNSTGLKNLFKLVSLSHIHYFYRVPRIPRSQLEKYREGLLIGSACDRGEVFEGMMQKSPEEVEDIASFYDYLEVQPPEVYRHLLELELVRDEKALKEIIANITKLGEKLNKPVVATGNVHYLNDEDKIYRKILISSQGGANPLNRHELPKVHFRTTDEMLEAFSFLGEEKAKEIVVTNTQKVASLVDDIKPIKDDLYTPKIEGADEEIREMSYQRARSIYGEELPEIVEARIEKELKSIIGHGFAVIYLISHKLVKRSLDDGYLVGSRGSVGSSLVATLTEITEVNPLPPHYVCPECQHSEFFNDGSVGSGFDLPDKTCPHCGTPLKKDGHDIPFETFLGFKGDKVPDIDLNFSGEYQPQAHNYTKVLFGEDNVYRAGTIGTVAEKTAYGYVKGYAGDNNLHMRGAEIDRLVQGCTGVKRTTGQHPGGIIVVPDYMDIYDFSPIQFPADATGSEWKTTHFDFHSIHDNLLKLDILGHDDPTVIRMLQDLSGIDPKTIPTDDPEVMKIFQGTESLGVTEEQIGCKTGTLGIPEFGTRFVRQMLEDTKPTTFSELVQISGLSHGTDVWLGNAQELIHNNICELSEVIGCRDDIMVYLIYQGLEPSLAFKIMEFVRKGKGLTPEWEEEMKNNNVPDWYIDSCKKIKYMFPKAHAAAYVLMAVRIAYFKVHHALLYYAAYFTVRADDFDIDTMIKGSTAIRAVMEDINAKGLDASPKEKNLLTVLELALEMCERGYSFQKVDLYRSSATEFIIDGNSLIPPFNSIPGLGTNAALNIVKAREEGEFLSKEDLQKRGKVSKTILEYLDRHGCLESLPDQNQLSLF

Row | Structure (SMILES) | Log 1/Ki [1] | Ki [2] [µM]
1 | Cc1cc(Nc2cc(O)nc(O)n2)ccc1N | 3.801 | 
2 | Cc1cccc(Nc2cc(O)nc(O)n2)c1 | 3.75 | 
3 | Oc1cc(Nc2cccc(Cl)c2)nc(O)n1 | 4.38 | 
4 | CCc1ccc(Nc2cc(=O)[nH]c(=O)[nH]2)cc1C |  | 19
5 | Cc1ccc(Nc2cc(O)nc(O)n2)cc1C | 5.456 | 
6 | CCCc1ccc(Nc2cc(O)nc(O)n2)cc1C | 4.86 | 97.9
7 | Oc1cc(Nc2cccc(Br)c2)nc(O)n1 | 4.66 | 
8 | CC(=O)Nc1ccc(Nc2cc(O)nc(O)n2)cc1C | 2.81 | 
9 | CCCc1cccc(Nc2cc(O)nc(O)n2)c1 |  | 17
10 | CCCCc1ccc(Nc2cc(O)nc(O)n2)cc1C | 3.879 | 692
11 | Nc1ccc(Nc2cc(O)nc(O)n2)cc1 | 2.409 | 
12 | CCCCc1cccc(Nc2cc(O)nc(O)n2)c1 |  | 695
13 | CC(=O)Nc1cc(Nc2cc(O)nc(O)n2)ccc1C | 2.726 | 
14 | OCc1cccc(Nc2cc(O)nc(O)n2)c1 | 2.29 | 
15 | Cc1ccc(Nc2cc(O)nc(O)n2)cc1I | 6.553 | 
16 | CCCc1ccc(Nc2cc(O)nc(O)n2)cc1 | 4.278 | 
17 | CCc1cc(Nc2cc(=O)[nH]c(=O)[nH]2)ccc1C |  | 0.19
18 | COc1ccc(Nc2cc(O)nc(O)n2)cc1 | 3.921 | 
